Patent US5589474A, “Dibenzothiazepinthione as antiviral agents” (Glaxo Wellcome Inc., priority 1991, dated 1996)

How the values were obtained:
[1] = tested on: HIV; assay: HIV (in vitro) MT4 assay; assay type: cell-based; settings: Human immunodeficiency virus 1
[2] = tested on: HIV; assay: HeLa-CD4 plaque reduction assay (HIV in vitro); assay type: cell-based; settings: Human immunodeficiency virus 1

IC50 [1] | IC50 [2] | Structure (SMILES)
9 µM | 5 µM | S=C1Nc2ccccc2Sc2ccccc21 [Example 3, 10,11-Dihydrodibenzo[b,f][1,4]thiazepin-11-thione]
3.3 µM | 15.4 µM | Fc1cccc2c1Sc1ccccc1NC2=S [8(iv), 4-Fluoro-10,11-dihydrobenzo[b,f][1,4]thiazepin-11-thione]
44.4 µM | 14.4 µM | O=[N+]([O-])c1ccc2c(c1)C(=S)Nc1ccccc1S2 [Example 6, 2-Nitro-10,11-dihydrodibenzo[b,f][1,4]thiazepin-11-thione]
